Data: ChEMBL document CHEMBL1158819, “Zyzzyanones B-D, dipyrroloquinones from the marine sponge Zyzzya fuliginosa” (J Nat Prod, 2005)
Converted amounts (≈) assume the structure as drawn.

Experiment: Cytotoxicity against mouse EAC cells
Type: functional, cell-based
Settings: Ehrlich

Compound | IC50
CN(C=O)CCc1cn(C)c2c1C(=O)c1c(-c3ccc(O)cc3)c[nH]c1C2=O [ZYZZYANONE C] | 25 µg/mL (≈ 66.2 µM)
CN(C=O)CCc1c[nH]c2c1C(=O)c1c(-c3ccc(O)cc3)c[nH]c1C2=O [ZYZZYANONE D] | 25 µg/mL (≈ 68.8 µM)
CNCCc1c[nH]c2c1C(=O)c1c(-c3ccc(O)cc3)c[nH]c1C2=O [ZYZZYANONE B] | 25 µg/mL (≈ 74.5 µM)
